In ChEMBL document CHEMBL3822392, “Design, synthesis and apoptosis inducing effect of novel (Z)-3-(3'-methoxy-4'-(2-amino-2-oxoethoxy)-benzylidene)indolin-2-ones as potential antitumour agents” (Eur J Med Chem, 2016):
Activity calls are given as the source filed them. No cut-off for these calls is given here.

Experiments:
[1] = tested on: MDA-MB-231; assay: cells; conditions: Homo sapiens, MDA-MB-231, 48 h
Description: Cytotoxicity against human MDA-MB-231 cells after 48 hrs by MTT assay

[2] = Cytotoxicity against human PC3 cells after 48 hrs by MTT assay; type: functional, cell-based; conditions: PC-3, 48 h
[3] = Cytotoxicity against human DU145 cells after 48 hrs by MTT assay; type: functional, cell-based; conditions: DU-145, 48 h
[4] = Cytotoxicity against human BT549 cells after 48 hrs by MTT assay; type: functional, cell-based; conditions: BT-549, 48 h
[5] = Cytotoxicity against human RWPE1 cells after 48 hrs by MTT assay; type: cell-based; conditions: RWPE-1, 48 h
[6] = Induction of apoptosis in human PC3 cells assessed as upregulation of Bax expression after 24 hrs by Western blot analysis; type: functional, cell-based; conditions: PC-3
[7] = Cell cycle arrest in human PC3 cells assessed as accumulation at S phase at 2 uM after 24 hrs by propidium iodide staining-based flow cytometry (reference value: 9.3%); type: functional; conditions: PC-3
[8] = Cytotoxicity against human PC3 cells assessed as cell viability at 4 uM after 48 hrs by trypan blue assay; type: functional; conditions: PC-3, 48 h, read-out: Activity
[9] = Cell cycle arrest in human PC3 cells assessed as accumulation at G0/G1 phase after 24 hrs by propidium iodide staining-based flow cytometry; type: functional; conditions: PC-3
[10] = tested on: PC-3; assay: Induction of apoptosis in human PC3 cells assessed as live cells at 4 uM after 24 hrs by Annexin V/FITC staining-based flow cytometric analysis (reference value: 85.7%); type: functional
[11] = tested on: PC-3; assay: Induction of apoptosis in human PC3 cells assessed as early apoptotic cells at 1 uM after 24 hrs by Annexin V/FITC staining-based flow cytometric analysis (reference value: 5.1%); type: functional
[12] = Cell cycle arrest in human PC3 cells assessed as accumulation at S phase at 1 uM after 24 hrs by propidium iodide staining-based flow cytometry (reference value: 9.3%); type: functional; conditions: PC-3
[13] = Cell cycle arrest in human PC3 cells assessed as accumulation at G2/M phase at 2 uM after 24 hrs by propidium iodide staining-based flow cytometry (reference value: 19.2%); type: functional; conditions: PC-3
[14] = Antimigratory activity in human PC3 cells at 2 uM after 24 hrs by wound healing assay (reference value: 43.4%); type: functional, PC-3
[15] = tested on: PC-3; assay: Induction of apoptosis in human PC3 cells assessed as live cells at 1 uM after 24 hrs by Annexin V/FITC staining-based flow cytometric analysis (reference value: 85.7%); type: functional
[16] = Antimigratory activity in human PC3 cells at 1 uM after 24 hrs by wound healing assay (reference value: 43.4%); type: functional, PC-3
[17] = tested on: PC-3; assay: Induction of apoptosis in human PC3 cells after 24 hrs by Annexin V/FITC staining-based flow cytometric analysis; type: functional, cell-based
[18] = Cell cycle arrest in human PC3 cells assessed as accumulation at G0/G1 phase at 2 uM after 24 hrs by propidium iodide staining-based flow cytometry (reference value: 71.7%); type: functional; conditions: PC-3
[19] = tested on: PC-3; assay: Disruption of mitochondrial membrane potential in human PC3 cells after 24 hrs by Rhodamine123 staining-based spectrofluorimetric analysis relative to control; type: functional, cell-based
[20] = Cytotoxicity against human PC3 cells assessed as cell viability at 2 uM after 48 hrs by trypan blue assay; type: functional; conditions: PC-3, 48 h, read-out: Activity
[21] = tested on: PC-3; assay: Cytotoxicity against human PC3 cells assessed as cell shrinkage at 1 to 4 uM after 48 hrs by phase contrast microscopic analysis relative to vehicle control; type: functional, cell-based
[22] = tested on: PC-3; assay: Antimigratory activity in human PC3 cells at 1 to 2 uM after 48 hrs by wound healing assay; type: functional, cell-based
[23] = Disruption of mitochondrial membrane potential in human PC3 cells at 1 to 4 uM after 24 hrs by Rhodamine123 staining-based spectrofluorimetric analysis relative to control; type: functional, PC-3
[24] = tested on: PC-3; assay: Induction of apoptosis in human PC3 cells assessed as nuclear fragmentation after 24 hrs by Hoechst […] staining-based confocal fluorescence microscopic analysis; type: functional, cell-based
[25] = tested on: PC-3; assay: Induction of apoptosis in human PC3 cells assessed as early apoptotic cells at 4 uM after 24 hrs by Annexin V/FITC staining-based flow cytometric analysis (reference value: 5.1%); type: functional
[26] = tested on: PC-3; assay: Induction of apoptosis in human PC3 cells assessed as necrotic cells at 1 uM after 24 hrs by Annexin V/FITC staining-based flow cytometric analysis (reference value: […]); type: functional
[27] = Cell cycle arrest in human PC3 cells assessed as accumulation at G0/G1 phase at 1 uM after 24 hrs by propidium iodide staining-based flow cytometry (reference value: 71.7%); type: functional; conditions: PC-3
[28] = tested on: PC-3; assay: Antimigratory activity in human PC3 cells assessed as disruption of F-actin formation around nucleus at 1 to 4 uM after 12 hrs by rhodamine phalloidin/Hoechst […] staining-based confocal microscopic analysis; type: functional, cell-based
[29] = tested on: PC-3; assay: Induction of apoptosis in human PC3 cells assessed as late apoptotic cells at 2 uM after 24 hrs by Annexin V/FITC staining-based flow cytometric analysis (reference value: 4.3%); type: functional
[30] = tested on: PC-3; assay: Induction of apoptosis in human PC3 cells assessed as necrotic cells at 4 uM after 24 hrs by Annexin V/FITC staining-based flow cytometric analysis (reference value: […]); type: functional
[31] = tested on: PC-3; assay: Induction of apoptosis in human PC3 cells assessed as live cells at 2 uM after 24 hrs by Annexin V/FITC staining-based flow cytometric analysis (reference value: 85.7%); type: functional
[32] = Cell cycle arrest in human PC3 cells assessed as accumulation at S phase at 4 uM after 24 hrs by propidium iodide staining-based flow cytometry (reference value: 9.3%); type: functional; conditions: PC-3
[33] = tested on: PC-3; assay: Induction of apoptosis in human PC3 cells assessed as late apoptotic cells at 4 uM after 24 hrs by Annexin V/FITC staining-based flow cytometric analysis (reference value: 4.3%); type: functional
[34] = Antimigratory activity in human PC3 cells at 4 uM after 24 hrs by wound healing assay (reference value: 43.4%); type: functional, PC-3
[35] = tested on: PC-3; assay: Antimigratory activity in human PC3 cells after 24 to 48 hrs by assay; type: functional, cell-based
[36] = tested on: PC-3; assay: Induction of apoptosis in human PC3 cells assessed as downregulation of Bcl2 expression after 24 hrs by Western blot analysis; type: functional, cell-based
[37] = tested on: PC-3; assay: Cytotoxicity against human PC3 cells assessed as cell detachment at 1 to 4 uM after 48 hrs by phase contrast microscopic analysis relative to vehicle control; type: functional, cell-based
[38] = tested on: PC-3; assay: Increase in intracellular Ca2+ level in human PC3 cells after 24 hrs by Fura-2/AM staining-based fluorescence microscopic analysis; type: functional, cell-based
[39] = tested on: PC-3; assay: Induction of apoptosis in human PC3 cells assessed as caspase 3 activation after 24 hrs by Western blot analysis; type: functional, cell-based
[40] = Cell cycle arrest in human PC3 cells assessed as accumulation at G2/M phase at 4 uM after 24 hrs by propidium iodide staining-based flow cytometry (reference value: 19.2%); type: functional; conditions: PC-3
[41] = tested on: PC-3; assay: Induction of apoptosis in human PC3 cells assessed as necrotic cells at 2 uM after 24 hrs by Annexin V/FITC staining-based flow cytometric analysis (reference value: […]); type: functional
[42] = tested on: PC-3; assay: Induction of apoptosis in human PC3 cells assessed as late apoptotic cells at 1 uM after 24 hrs by Annexin V/FITC staining-based flow cytometric analysis (reference value: 4.3%); type: functional
[43] = tested on: PC-3; assay: Induction of apoptosis in human PC3 cells assessed as chromatin condensation after 24 hrs by Hoechst […] staining-based confocal fluorescence microscopic analysis; type: functional, cell-based
[44] = tested on: PC-3; assay: Induction of apoptosis in human PC3 cells assessed as early apoptotic cells at 2 uM after 24 hrs by Annexin V/FITC staining-based flow cytometric analysis (reference value: 5.1%); type: functional
[45] = Cell cycle arrest in human PC3 cells assessed as accumulation at G2/M phase at 1 uM after 24 hrs by propidium iodide staining-based flow cytometry (reference value: 19.2%); type: functional; conditions: PC-3
[46] = Cell cycle arrest in human PC3 cells assessed as accumulation at G0/G1 phase at 4 uM after 24 hrs by propidium iodide staining-based flow cytometry (reference value: 71.7%); type: functional; conditions: PC-3

SMILES: CCN(CC)CCNC(=O)c1c(C)[nH]c(/C=C2\C(=O)Nc3ccc(F)cc32)c1C [SUNITINIB]
- IC50 [1]: 7.4 µM
- IC50 [2]: 19.6 µM
- IC50 [3]: 16.4 µM
- IC50 [4]: 15.5 µM
- IC50 [5]: 23 µM

SMILES: COc1cc(/C=C2\C(=O)Nc3ccccc32)ccc1OCC(=O)N1CCCC1
- IC50 [1]: > 20 µM
- IC50 [2]: > 20 µM
- IC50 [3]: > 20 µM
- IC50 [4]: > 20 µM

SMILES: COc1cc(/C=C2\C(=O)Nc3ccccc32)ccc1OCC(=O)N1CCOCC1
- IC50 [1]: 9.78 µM
- IC50 [2]: 5.97 µM
- IC50 [3]: 5.75 µM
- IC50 [4]: 8.87 µM
- IC50 [5]: 81.8 µM

SMILES: COc1cc(/C=C2\C(=O)Nc3ccccc32)ccc1OCC(=O)N1CCCCC1
- IC50 [1]: 19.3 µM
- IC50 [2]: 6.97 µM
- IC50 [3]: 6.63 µM
- IC50 [4]: > 20 µM
- IC50 [5]: 78.1 µM

SMILES: COc1cc(/C=C2\C(=O)Nc3ccccc32)ccc1OCC(=O)N1CCc2ccccc21
- Activity [6]: Dose-dependent effect
- IC50 [1]: 6.35 µM
- IC50 [2]: 1.89 µM
- Activity [7]: 27.6%
- viability at 4 µM [8]: 45%
- Activity [9]: Dose-dependent effect
- Activity [10]: 57.4%
- Activity [11]: 13.6%
- Activity [12]: 18.5%
- Activity [13]: 49.8%
- Activity [14]: 29.4%
- Activity [15]: 77.7%
- Activity [16]: 37.3%
- Activity [17]: Dose-dependent effect
- IC50 [3]: 1.94 µM
- Activity [18]: 20.8%
- Activity [19]: Dose-dependent effect
- viability at 2 µM [20]: 53%
- Activity [21]: Active
- Activity [22]: Active
- Activity [23]: 19%
- Activity [24]: Dose-dependent effect
- Activity [25]: 15.8%
- Activity [26]: 0.4%
- Activity [27]: 39.1%
- Activity [28]: Active
- Activity [29]: 10.2%
- Activity [30]: 4.4%
- Activity [31]: 70.9%
- Activity [32]: 24.2%
- Activity [33]: 22.4%
- Activity [34]: 7.3%
- Activity [35]: Dose-dependent effect
- IC50 [4]: 7.17 µM
- Activity [36]: Dose-dependent effect
- IC50 [5]: > 100 µM
- Activity [37]: Active
- Activity [38]: Dose-dependent effect
- Activity [39]: Dose-dependent effect
- Activity [40]: 55.7%
- Activity [41]: 1.3%
- Activity [42]: 8.3%
- Activity [43]: Dose-dependent effect
- Activity [44]: 17.6%
- Activity [45]: 41.6%
- Activity [46]: 19.4%

SMILES: COc1cc(/C=C2\C(=O)Nc3ccccc32)ccc1OCC(=O)N1CC(C)OC(C)C1 (centres undefined)
- IC50 [1]: > 20 µM
- IC50 [2]: > 20 µM
- IC50 [3]: > 20 µM
- IC50 [4]: > 20 µM
